Values of other authors, collected in patent publication US6458974B1, “Synthesis of β-lapachone and its intermediates” (Cyclis Pharmaceuticals, Inc., priority 2001, dated 2002).

Tests used:
[1] = tested on: human cancer cell lines; conditions: single agent, concentrations typically in this range, read-out: antineoplastic activity (IC50)
[2] = tested on: normal fresh or proliferating human PBMC

For `CC1(C)CCC2=C(O1)c1ccccc1C(=O)C2=O` [β-lapachone, 3,4-dihydro-2,2-dimethyl-2H-naphtho[1,2-b]pyran-5,6-dione], which IC50 [1] is on record?
The IC50 was 1 to 10 µM.

And the cytotoxic effects [2]?
Its cytotoxic effects is “No cytotoxic effects”.
